Reference: patent US6583166B1, “Triazole compounds with dopamine-D3-receptor affinity” (Abbott Laboratories, priority 1999, dated 2003)

Biological target: T1, human D3-receptor (Homo sapiens, UniProt P35462)
T1 construct: host or cells: CCL 1,3 mouse fibroblasts
Test: D3 binding test (125iodosulpiride displacement)
Conditions: cloned human D3 receptor in CCL 1,3 mouse fibroblast membranes; 0.1 nM 125iodosulpiride; read-out: Ki value for the binding toward the D3 receptor
Experimental: Cloned human D3-receptor-expressing CCL 1,3 mouse fibroblasts, obtainable from Res. Biochemicals Internat. One Strathmore Rd., Natick, Mass. 01760-2418 USA, were used for the binding studies.
The D3-expressing cells were multiplied in RPMI-1640 containing 10% fetal calf serum (GIBCO No. 041-32400 N); 100 U of penicillin/ml and 0.2% streptomycin (GIBO BRL, Gaithersburg, Md., USA). After 48 h, the cells were washed with PBS and incubated for 5 min with 0.05% trypsin-containing PBS. After that, the solution was neutralized with medium and the cells were collected by centrifuging at 300 g. In order to lyse the cells, the pellet was washed briefly with lysis buffer (5 mM Tris-HCl, pH 7.4, containing 10% glycerol) and after that incubated, at 4° C. for 30 min, at a concentration of 10^7 cells/ml of lysis buffer. […]
For the D3-receptor binding test, the membranes were suspended in incubation buffer (50 mM Tris-HCl, pH 7.4, containing 120 mM NaCl, 5 mM KC1, 2 mM CaCl2, 2 mM MgCl2, 10 μM quinolinol, 0.1% ascorbic acid and 0.1% BSA), at a concentration of approx. 10^6 cells/250 μl of test mixture, and incubated at 30° C. […] 0.1 nM ^125iodosulpiride in the presence and absence of the test substance. The nonspecific binding was determined using 10^−6 M spiperone. […]
The Ki values were determined by means of nonlinear regression analysis using the LIGAND program. […]

T1 sequence (P35462 whole entry): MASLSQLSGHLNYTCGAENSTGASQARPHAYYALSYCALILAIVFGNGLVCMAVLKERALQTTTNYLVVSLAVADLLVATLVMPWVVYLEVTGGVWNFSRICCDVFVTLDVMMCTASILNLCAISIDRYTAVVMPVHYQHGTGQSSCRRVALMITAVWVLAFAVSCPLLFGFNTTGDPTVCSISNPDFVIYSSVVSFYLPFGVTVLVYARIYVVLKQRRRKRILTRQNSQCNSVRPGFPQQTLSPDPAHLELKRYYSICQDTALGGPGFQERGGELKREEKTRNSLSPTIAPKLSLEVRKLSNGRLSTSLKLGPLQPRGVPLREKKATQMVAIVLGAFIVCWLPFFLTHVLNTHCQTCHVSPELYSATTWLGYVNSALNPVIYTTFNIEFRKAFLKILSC

For `Cn1c(SCCCN2CCC3c4c(Br)cccc4CCC32)nnc1-c1ccccc1` (mixture of isomers) [Example 1, (cis/trans) 9-Bromo-3-{3-[(4-methyl-5-phenyl-4H-1,2,4-triazol-3-yl)sulfanyl]propyl}-2,3,3a,4,5,9b-hexahydro-1H-benzo[e]indole], the Ki was 50 nM.
